“And” between values parts separate entries of the source, which are not always exact repeats. Identical values can stand only once.
Assays:
Assay type in all cases: in vivo
morphine-addicted rats = assay: Rat hot flush test procedure (tail skin temperature after naloxone)
From the text: The effect of test compounds on hot flushes can be evaluated in a standard pharmacological test procedure that measures the ability of a test compound to blunt the increase in tail skin temperature, which occurs as morphine-addicted rats are acutely withdrawn from the drug using naloxone [Merchenthaler, et al., Maturitas 30: 307-16 (1998)]. It can also be used to detect estrogen receptor antagonist activity by co-dosing test compound with the reference estrogen. The following data were obtained from representative metabolites of compounds of the invention (Table 7).

Female Mongolian gerbils = assay: Transient global ischemia in the Mongolian gerbil: neurogranin mRNA in hippocampus; conditions: gerbil hippocampus after 5 min global ischemia; s.c. daily
Method: Transient global ischemia in the Mongolian gerbil. The effect of test compounds on preventing or treating brain injury in response to oxygen deprivation/reperfusion were measured using the following test procedure.
Female Mongolian gerbils (60-80 g; Charles River Laboratories, Kingston, N.Y.) were housed in the Wyeth-Ayerst animal care facility Association for Assessment and Acreditation of Laboratory Animal Care (AAALAC) certified with a 12-hour light, 12-hour dark photoperiod and free access to tap water and a low-estrogen casein diet (Purina®; Richmond, Ind.). After acclimation (3-5 days), gerbils were anesthetized with isoflurane (2-3% mixture with O2), ovariectomized (Day 0). […] On Day 6, gerbils (n=4-5/group) were anesthetized with isoflurane, the common carotid arteries visualized via a mid-line neck incision and both arteries simultaneously occluded for 5 minutes with non-traumatic micro aneurysm clips. […]
The degree of neuronal protection was evaluated by in situ hybridization analysis of neurogranin mRNA. […]
Neurogranin mRNA was selected for these studies because it is highly expressed in the hippocampal neurons including CA1, but absent in glia and other cell types present in this brain region. […] The results from 6 sections (40 μm apart) per animal were averaged and statistically evaluated. […]

[1] = tested on: Sexually immature Sprague-Dawley rats; assay: Rat uterotrophic test procedure (Procedure 1)
[2] = tested on: ovulation (number of oocytes ovulated); assay: Ovulation inhibition test procedure; conditions: 50 mg/kg
From the text: The test procedure is used to determine whether test compounds can inhibit or change the timing of ovulation. It can also be used to determine the number of oocytes ovulated [Lundeen, et al., J Steroid Biochem Mol Biol 78: 137-143 (2001)]. The following data were obtained from representative metabolites of compounds from the invention (Table 22).

[3] = compound 2 mg/rat + 17α-ethinyl, 17β-estradiol 0.06 μg/rat s.c. (antagonist mode)

SMILES | Temperature change 15 minutes after naloxone injection (mean ± SEM) (morphine-addicted rats; 15 mg/kg) | Neurogranin mRNA (mean ± stdev) (Female Mongolian gerbils) | mean uterine weight ± SEM [1, 3] | Number of oocytes (mean ± SEM) [2] | Temperature change 15 minutes after naloxone injection (mean ± SEM) (morphine-addicted rats; 0.3 mg/kg) | mean uterine weight ± SEM ([1]; reference estrogen alone, 0.06 μg/rat s.c., days 19-21)
N#Cc1cc(O)cc2nc(-c3ccc(O)cc3)oc12 [Example 41, 5-HYDROXY-2-(4-HYDROXYPHENYL)-1,3-BENZOXAZOL-7-CARBONITRILE] | 5.25 ± 0.72 | 43.0 ± 21.8 arbitrary units | 76.6 ± 3.0 mg | – | – | –
Oc1ccc(-c2nc3cc(O)cc(Br)c3o2)cc1 [Example 20, 7-BROMO-2-(4-HYDROXYPHENYL)-1,3-BENZOXAZOL-5-OL] | 5.28 ± 0.71 | – | 95.9 ± 5.5 mg | 14.13 ± 0.79 | – | –
C#C[C@]1(O)CC[C@H]2[C@@H]3CCc4cc(O)ccc4[C@H]3CC[C@@]21C [17α-ethinyl, 17β-estradiol, 17α-ethinyl-17β-estradiol, reference compound] | – | – | – | – | 2.12 ± 1.14 | 104.7 ± 5.4 mg and 85.5 ± 3.1 mg

— US20060046968A1, “Prodrug substituted benzoxazoles as estrogenic agents” (priority 2004, published 2006)
